ChEMBL document CHEMBL1201862, “PubChem BioAssay data set” (2004)
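Exposure lasted 48 hours, with cells grown in 96-well plates and compounds tested at five concentrations. At the GI50, growth is halved.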 Activity calls are given as the source filed them. No stated cut-off is given here; in the data, active = GI50 up to about 1.1 µM and inactive = higher.

Legend:
Assay in all cases: NCI-60 cell line screen, 48 h
A498 = system: A498
A549 = system: A549
ACHN = system: ACHN
BT-549 = system: BT-549
DU-145 = system: DU-145
EKVX = system: EKVX
HT-29 = system: HT-29
MCF7 = system: MCF7
Malme-3M = system: Malme-3M
OVCAR-4 = system: OVCAR-4
PC-3 = system: PC-3
SK-MEL-28 = system: SK-MEL-28
SK-OV-3 = system: SK-OV-3
SNB-19 = system: SNB-19
SNB-75 = system: SNB-75
UO-31 = system: UO-31
LOX IMVI = system: LOX IMVI
OVCAR-3 = system: OVCAR-3
SF-539 = system: SF-539
MDA-N = system: MDA-N

Measured: GI50

Nn1c(CCCCCCCCc2nnc(COc3ccc(Cl)cc3)n2N)nnc1COc1ccc(Cl)cc1
inactive: A498 95.1 µM | A549 > 100 µM | ACHN > 100 µM | BT-549 > 100 µM | DU-145 > 100 µM | EKVX > 100 µM | HT-29 > 100 µM | MCF7 > 100 µM | Malme-3M > 100 µM | OVCAR-4 > 100 µM | PC-3 68.2 µM | SK-MEL-28 > 100 µM | SK-OV-3 > 100 µM | SNB-19 > 100 µM | SNB-75 > 100 µM | UO-31 25.4 µM

Cc1cc(CNC(=O)OCc2ccccc2)c(C)c2c1Oc1ccccc1O2
inactive: A498 23 µM | A549 20.9 µM | ACHN 43.8 µM | BT-549 62.8 µM | DU-145 71 µM | EKVX 42.9 µM | HT-29 20.2 µM | LOX IMVI > 100 µM | MCF7 49.5 µM | Malme-3M 75.9 µM | OVCAR-3 57.8 µM | OVCAR-4 21.3 µM | PC-3 43.4 µM | SK-MEL-28 > 100 µM | SK-OV-3 17.1 µM | SNB-19 25.5 µM | SNB-75 11.8 µM | UO-31 28.6 µM

COc1ccccc1NC(=O)CC(=O)N1N=C(N2c3ccccc3Sc3ccccc32)CC1c1ccccc1 (stereo not drawn)
inactive: A498 > 100 µM | A549 > 100 µM | ACHN > 100 µM | BT-549 > 100 µM | DU-145 > 100 µM | EKVX > 100 µM | HT-29 > 100 µM | MCF7 > 100 µM | OVCAR-3 > 100 µM | OVCAR-4 > 100 µM | PC-3 > 100 µM | SF-539 > 100 µM | SK-MEL-28 > 100 µM | SK-OV-3 > 100 µM | SNB-19 > 100 µM | SNB-75 > 100 µM | UO-31 > 100 µM

Cc1ccc(-c2c(C#N)c(-c3ccccc3)n(NS(=O)(=O)c3ccc(C)cc3)c(=O)c2C#N)cc1
inactive: A498 52.8 µM | A549 55.8 µM | ACHN 38 µM | BT-549 22.9 µM | EKVX 89.9 µM | HT-29 69.2 µM | LOX IMVI 26.7 µM | MCF7 37 µM | MDA-N 71.8 µM | Malme-3M 38.6 µM | OVCAR-4 43.5 µM | PC-3 36.6 µM | SF-539 34 µM | SK-MEL-28 52.1 µM | SK-OV-3 96.6 µM | SNB-19 50.8 µM | SNB-75 92.5 µM
